Measurements as given in patent US9321718B2 (CHROMA THERAPEUTICS LTD., priority 2010, dated 2016).

Molecular target: T1, human recombinant his-tagged HSP90α (Homo sapiens, UniProt P07900)
T1 construct: purchased Prospec Technogene #HSP90
Test: HSP90 enzyme assay (HTRF, competition with biotinylated Geldanamycin)
Format: binding
Details: IC50 range; read-out: Enzyme Assay
Excerpt: An HTRF (homogeneous time resolved fluorescence) assay is used to measure the interaction of the compounds with HSP90. The assay measures binding of biotinylated Geldanamycin (bio-GM; Biomol, #EI-341, lot: A9199a) to human recombinant his-tagged HSP90α (HSP90; Prospec Technogene, #HSP90, lot: 260HSP9001). A signal is generated by fluorescence resonance energy transfer from an Europium-cryptate labeled anti-his antibody (anti-his-K; Cisbio International, #61HISKLA, lot: 33V) via the HSP90-GM-biotin complex to a fluorescence acceptor (allophycocyanin) linked to streptavidin (SA-XL; Cisbio International, #610SAXLB, lot: 089).
Unlabeled GM or compounds compete with the bio-GM for binding to HSP90 resulting in reduced fluorescence energy transfer/assay signal.
A preformed (1 hour incubation) complex of HSP90 with the anti-his-K is added to the compound solution in a 384 well microplate (Corning, #3710) and incubated for 15 minutes. A preformed (1 hour incubation) complex of bio-GM with the SA-XL is added to the wells and incubated for 20 hours. All incubations are performed at room temperature. The final assay volume is 50 μl/well. The final concentrations in the assay are: 50 mM Hepes pH 7.3, 50 mM NaCl, 100 mM KF, 1 mM EDTA, 1 mM DTT, 0.1% Triton-X-100, […] HSP90, 40 nM SA-XL, 40 nM bio-GM. Test compounds are dissolved in DMSO, prediluted in assay buffer and tested at a final concentration between 5000 nM and 0.3 nM. The resulting DMSO concentration is 0.5% and included in all controls. High controls are without test compounds, low controls without test compounds, without HSP90 and without bio-GM. As a reference inhibitor unlabeled GM is used in the same concentrations as the test compounds.
Inhibition is calculated compared to the assay controls using an Excel spreadsheet (Microsoft). IC50 values are calculated by non-linear least squares fitting to the standard dose-response model using GraphPad Prism (GraphPad Software Inc).

| SMILES | IC50 [nM] |
| --- | --- |
| CC(C)c1cc(C(=O)N2CCC(N[C@H](C(=O)OC(C)(C)C)C3CCCCC3)CC2)c(O)cc1O [Example 15, tert-butyl (2S)-cyclohexyl[(1-{[2,4-dihydroxy-5-(propan-2-yl)phenyl]carbonyl}piperidin-4-yl)amino]ethanoate] | 100 to 1000 |
| CC(C)c1cc(C(=O)N2CCC(CN[C@H](C(=O)OC(C)(C)C)C3CCCCC3)CC2)c(O)cc1O [Example 31, tert-butyl (2S)-cyclohexyl{[(1-{[2,4-dihydroxy-5-(propan-2-yl)phenyl]carbonyl}piperidin-4-yl)methyl]amino}ethanoate] | 100 to 1000 |
| CC(C)c1cc(C(=O)N2CCC(CCN[C@@H](Cc3ccccc3)C(=O)OC(C)(C)C)CC2)c(O)cc1O [Example 41, tert-butyl N-[2-(1-{[2,4-dihydroxy-5-(propan-2-yl)phenyl]carbonyl}piperidin-4-yl)ethyl]-L-phenylalaninate] | < 100 |
| CC(C)c1cc(C(=O)N2CCC(CCN[C@@H](C)C(=O)OC(C)(C)C)CC2)c(O)cc1O [Example 43, tert-butyl N-[2-(1-{[2,4-dihydroxy-5-(propan-2-yl)phenyl]carbonyl}piperidin-4-yl)ethyl]-L-alaninate] | < 100 |
| CC(C)c1cc(C(=O)N2CCC(CCN[C@H](C(=O)OC(C)(C)C)C3CCCCC3)CC2)c(O)cc1O [Example 49, tert-butyl (2S)-cyclohexyl{[2-(1-{[2,4-dihydroxy-5-(propan-2-yl)phenyl]carbonyl}piperidin-4-yl)ethyl]amino}ethanoate] | < 100 |
| CC(C)c1cc(C(=O)N2CCC(CCN[C@H](C(=O)OC(C)(C)C)c3ccccc3)CC2)c(O)cc1O [Example 50, tert-butyl (2S)-{[2-(1-{[2,4-dihydroxy-5-(propan-2-yl)phenyl]carbonyl}piperidin-4-yl)ethyl]amino}(phenyl)ethanoate] | < 100 |
| CC(C)c1cc(C(=O)N2CCC(CCN[C@@H](COC(C)(C)C)C(=O)OC(C)(C)C)CC2)c(O)cc1O [Example 53, tert-butyl O-tert-butyl-N-[2-(1-{[2,4-dihydroxy-5-(propan-2-yl)phenyl]carbonyl}piperidin-4-yl)ethyl]-L-serinate] | < 100 |
| CCOC(=O)[C@H](C)NCc1ccc2c(c1)CN(C(=O)c1cc(C(C)C)c(O)cc1O)C2 [Example 57, ethyl N-[(2-{[2,4-dihydroxy-5-(propan-2-yl)phenyl]carbonyl}-2,3-dihydro-1H-isoindol-5-yl)methyl]-L-alaninate] | < 100 |
| CC(C)OC(=O)[C@H](C)NCc1ccc2c(c1)CN(C(=O)c1cc(C(C)C)c(O)cc1O)C2 [Example 58, propan-2-yl N-[(2-{[2,4-dihydroxy-5-(propan-2-yl)phenyl]carbonyl}-2,3-dihydro-1H-isoindol-5-yl)methyl]-L-alaninate] | < 100 |
| CC(C)C[C@H](NCc1ccc(CN(C)C(=O)c2cc(C(C)C)c(O)cc2O)cc1)C(=O)O [Example 77, N-(4-{[{[2,4-dihydroxy-5-(propan-2-yl)phenyl]carbonyl}(methyl)amino]methyl}benzyl)-L-leucine] | < 100 |
| CC(C)C[C@H](NCc1ccc2c(c1)CN(C(=O)c1cc(C(C)C)c(O)cc1O)C2)C(=O)O [Example 78, N-[(2-{[2,4-dihydroxy-5-(propan-2-yl)phenyl]carbonyl}-2,3-dihydro-1H-isoindol-5-yl)methyl]-L-leucine] | < 100 |
| CC(C)c1cc(C(=O)N2Cc3ccc(CNC(C)(C)C(=O)O)cc3C2)c(O)cc1O [Example 79, N-[(2-{[2,4-dihydroxy-5-(propan-2-yl)phenyl]carbonyl}-2,3-dihydro-1H-isoindol-5-yl)methyl]-2-methylalanine] | < 100 |
| CC(C)C[C@H](NCCCc1ccc2c(c1)CN(C(=O)c1cc(C(C)C)c(O)cc1O)C2)C(=O)O [Example 80, N-[3-(2-{[2,4-dihydroxy-5-(propan-2-yl)phenyl]carbonyl}-2,3-dihydro-1H-isoindol-5-yl)propyl]-L-leucine] | < 100 |
| CC(C)C[C@H](NCCc1ccc2c(c1)CN(C(=O)c1cc(C(C)C)c(O)cc1O)C2)C(=O)O [Example 81, N-[2-(2-{[2,4-dihydroxy-5-(propan-2-yl)phenyl]carbonyl}-2,3-dihydro-1H-isoindol-5-yl)ethyl]-L-leucine] | < 100 |
| CC(C)c1cc(C(=O)N2Cc3ccc(CN[C@@H](C)C(=O)O)cc3C2)c(O)cc1O [Example 82, N-[(2-{[2,4-dihydroxy-5-(propan-2-yl)phenyl]carbonyl}-2,3-dihydro-4H-isoindol-5-yl)methyl]-L-alanine] | < 100 |
| CC(C)c1cc(C(=O)N2Cc3ccc(CNC4(C(=O)O)CCCC4)cc3C2)c(O)cc1O [Example 83, 1-{[(2-{[2,4-dihydroxy-5-(propan-2-yl)phenyl]carbonyl}-2,3-dihydro-1H-isoindol-5-yl)methyl]amino}cyclopentanecarboxylic acid] | < 100 |
| CC(C)C[C@H](NCc1cccc(CN(C)C(=O)c2cc(C(C)C)c(O)cc2O)c1)C(=O)O [Example 84, N-(3-{[{[2,4-dihydroxy-5-(propan-2-yl)phenyl]carbonyl}(methyl)amino]methyl}benzyl)-L-leucine] | < 100 |
| CC(C)c1cc(C(=O)N(C)Cc2ccc(CN[C@H](C(=O)O)c3ccccc3)cc2)c(O)cc1O [Example 85, (2S)-[(4-{[{[2,4-dihydroxy-5-(propan-2-yl)phenyl]carbonyl}(methyl)amino]methyl}benzyl)amino](phenyl)ethanoic acid] | < 100 |
| CC(C)c1cc(C(=O)N(C)Cc2ccc(CNC(C)(C)C(=O)O)cc2)c(O)cc1O [Example 86, N-(4-{[{[2,4-dihydroxy-5-(propan-2-yl)phenyl]carbonyl}(methyl)amino]methyl}benzyl)-2-methylalanine] | < 100 |
| CC(C)c1cc(C(=O)N(C)Cc2cccc(CNC(C)(C)C(=O)O)c2)c(O)cc1O [Example 87, N-(3-{[{[2,4-dihydroxy-5-(propan-2-yl)phenyl]carbonyl}(methyl)amino]methyl}benzyl)-2-methylalanine] | < 100 |
| CC(C)c1cc(C(=O)N(C)Cc2cccc(CNC3(C(=O)O)CCCC3)c2)c(O)cc1O [Example 88, 1-[(3-{[{[2,4-dihydroxy-5-(propan-2-yl)phenyl]carbonyl}(methyl)amino]methyl}benzyl)amino]cyclopentanecarboxylic acid] | < 100 |
| CC(C)c1cc(C(=O)N(C)Cc2cccc(CN[C@H](C(=O)O)c3ccccc3)c2)c(O)cc1O [Example 89, (2S)-[(3-{[{[2,4-dihydroxy-5-(propan-2-yl)phenyl]carbonyl}(methyl)amino]methyl}benzyl)amino](phenyl)ethanoic acid] | < 100 |
| CC(C)c1cc(C(=O)N2Cc3ccc(CCCNC4(C(=O)O)CCCC4)cc3C2)c(O)cc1O [Example 90, 1-{[3-(2-{[2,4-dihydroxy-5-(propan-2-yl)phenyl]carbonyl}-2,3-dihydro-1H-isoindol-5-yl)propyl]amino}cyclopentanecarboxylic acid] | < 100 |
| CC(C)c1cc(C(=O)N(C)Cc2ccc(CCNC(C)(C)C(=O)O)cc2)c(O)cc1O [Example 91, N-[2-(4-{[{[2,4-dihydroxy-5-(propan-2-yl)phenyl]carbonyl}(methyl)amino]methyl}phenyl)ethyl]-2-methylalanine] | < 100 |
| CC(C)c1cc(C(=O)N2CCC(CCN[C@@H](C)C(=O)O)CC2)c(O)cc1O [Example 92, N-[2-(1-{[2,4-dihydroxy-5-(propan-2-yl)phenyl]carbonyl}piperidin-4-yl)ethyl]-L-alanine] | < 100 |
| CC(C)c1cc(C(=O)N2Cc3ccc(CCNC4(C(=O)O)CCCC4)cc3C2)c(O)cc1O [Example 93, 1-{[2-(2-{[2,4-dihydroxy-5-(propan-2-yl)phenyl]carbonyl}-2,3-dihydro-1H-isoindol-5-yl)ethyl]amino}cyclopentanecarboxylic acid] | < 100 |
| CC(C)C[C@H](NC[C@@H]1CCCN1C(=O)c1cc(C(C)C)c(O)cc1O)C(=O)O [Example 94, N-{[(2S)-1-{[2,4-dihydroxy-5-(propan-2-yl)phenyl]carbonyl}pyrrolidin-2-yl]methyl}-L-leucine] | 100 to 1000 |
| CC(C)C[C@H](NC1CCN(C(=O)c2cc(C(C)C)c(O)cc2O)C1)C(=O)O (stereo partly drawn) [Example 95, N-(1-{[2,4-dihydroxy-5-(propan-2-yl)phenyl]carbonyl}pyrrolidin-3-yl)-L-leucine] | < 100 |
| CC(C)C[C@H](NC1CCN(C(=O)c2cc(C(C)C)c(O)cc2O)CC1)C(=O)O [Example 96, N-(1-{[2,4-dihydroxy-5-(propan-2-yl)phenyl]carbonyl}piperidin-4-yl)-L-leucine] | < 100 |
| CC(C)c1cc(C(=O)N2CCC(NC(C)(C)C(=O)O)CC2)c(O)cc1O [Example 97, N-(1-{[2,4-dihydroxy-5-(propan-2-yl)phenyl]carbonyl}piperidin-4-yl)-2-methylalanine] | < 100 |
